{"source": "patent US9029553B2", "about": "“2-anilino nicotinyl linked 2-amino benzothiazole conjugates and process for the preparation thereof” (Council of Scientific & Industrial Research, priority 2011, dated 2015)", "key": {"HL-60 cells [1]": {"system": "HL-60 cells", "experiment": "Cell cycle analysis (FACS) by flow cytometry", "type": "cell-based, human", "conditions": "1 μM, up to 24 h", "from_the_text": "The damage was more apparent with compound 8 and 6 (90% and 60% DNA damaged, respectively)."}, "HL-60 cells [2]": {"system": "HL-60 cells", "experiment": "Loss of mitochondrial membrane potential (Rh-123 uptake)", "type": "cell-based, human", "conditions": "1 μM, 48 h", "description": "Rhodamine-123 uptake into mitochondria is driven by mitochondrial Transmembrane potential (Ψmt) that allows the determination of cell population with active integrated mitochondrial functions. Loss of Ψmt leads to depolarization of mitochondrial membranes leading to collapse of mitochondrial functions ensuing cell death. The loss of Ψmt indicated the loss of mitochondrial integrity to couple electrons to energy production. HL-60 cells exposed to tested compounds for 48 h at 1 μM were analyzed for Rh-123 uptake by flow cytometry. The percentage of cells with low Rh-123 quantum fluorescence indicative of loss of Ψmt was calculated among the total acquired cell events (10,000). In the untreated control cells, more than 90% cells were functionally active with high Rh-123 signals (FIG. 9)."}, "PARP": {"system": "PARP", "experiment": "Western blot of cell death targets", "type": "cell-based, human", "conditions": "1 μM, 24 h, HL-60", "description": "Apoptosis was further characterized by the western blot analysis. Cells were treated with tested compounds at 1 μM for 24 h and expression of key apoptotic proteins like NF-kB, survivin; PARP, Bcl-2 and HSP-90 were analyzed through western blot. Both NF-kB and survivin are highly expressed in HL-60 cells. NF-kB is a transcriptional factor regulating the expression of several genes in the cells whereas survivin is a cell cycle regulated inhibitor of apoptosis protein (IAP), mostly over expressed in most of the tumors.\nDuring apoptotic stimuli activated caspase-3 appears to cause DNA fragmentation through activation of caspase activated DNAse (CAD) in the nucleus of the cells. […] Cancer cells have very high level of heat shock proteins. These are molecular chaperones expressed constitutively under normal conditions to maintain protein homeostasis and are induced upon environmental stress."}, "OVCAR-5": {"system": "OVCAR-5", "experiment": "SRB percentage growth inhibition (NCI protocol)", "type": "cell-based", "conditions": "Homo sapiens, 48 hrs exposure", "how_it_was_run": "(§1)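 Read-out: sulforhodamine B protein assay for viability/growth. Cells were exposed continuously to compound for 48 hrs at two concentrations, 1 and 10 μM. Values are percentage growth inhibition versus control.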"}, "SK-NS-H": {"system": "SK-NS-H", "experiment": "SRB percentage growth inhibition (NCI protocol)", "type": "cell-based", "conditions": "Homo sapiens, SK-N-SH, 48 hrs exposure", "how_it_was_run": "as §1"}, "SiHa": {"system": "SiHa", "experiment": "SRB percentage growth inhibition (NCI protocol)", "type": "cell-based", "conditions": "Homo sapiens, 48 hrs exposure", "how_it_was_run": "as §1"}, "HCT-15": {"system": "HCT-15", "experiment": "SRB percentage growth inhibition (NCI protocol)", "type": "cell-based", "conditions": "Homo sapiens, 10 μM, 48 hrs exposure", "how_it_was_run": "as §1"}, "PC-3": {"system": "PC-3", "experiment": "SRB percentage growth inhibition (NCI protocol)", "type": "cell-based", "conditions": "Homo sapiens, 48 hrs exposure", "how_it_was_run": "as §1"}, "HEP-2": {"system": "HEP-2", "experiment": "SRB percentage growth inhibition (NCI protocol)", "type": "cell-based", "conditions": "Homo sapiens, 48 hrs exposure", "how_it_was_run": "as §1"}, "MCF-7": {"system": "MCF-7", "experiment": "SRB percentage growth inhibition (NCI protocol)", "type": "cell-based", "conditions": "Homo sapiens, MCF7, 48 hrs exposure", "how_it_was_run": "as §1"}, "DU145": {"system": "DU145", "experiment": "SRB percentage growth inhibition (NCI protocol)", "type": "cell-based", "conditions": "Homo sapiens, DU-145, 48 hrs exposure", "how_it_was_run": "as §1"}, "502713": {"system": "502713", "experiment": "SRB percentage growth inhibition (NCI protocol)", "type": "cell-based", "conditions": "Homo sapiens, 48 hrs exposure", "how_it_was_run": "as §1"}, "IMR-32": {"system": "IMR-32", "experiment": "SRB percentage growth inhibition (NCI protocol)", "type": "cell-based", "conditions": "Homo sapiens, 48 hrs exposure", "how_it_was_run": "as §1"}, "A549": {"system": "A549", "experiment": "SRB percentage growth inhibition (NCI protocol)", "type": "cell-based", "conditions": "Homo sapiens, 48 hrs exposure", "how_it_was_run": "as §1"}, "Sw-620": {"system": "Sw-620", "experiment": "SRB percentage growth inhibition (NCI protocol)", "type": "cell-based", "conditions": "Homo sapiens, 48 hrs exposure", "how_it_was_run": "as §1"}, "IGR-OV-1": {"system": "IGR-OV-1", "experiment": "SRB percentage growth inhibition (NCI protocol)", "type": "cell-based", "conditions": "Homo sapiens, IGROV-1, 48 hrs exposure", "how_it_was_run": "as §1"}, "HL-60 cells [3]": {"system": "HL-60 cells", "experiment": "Flow cytometric analysis of reactive oxygen species (DCFH-DA)", "type": "cell-based, human", "conditions": "1 μM, 24 hr, HL-60", "description": "It was clear that these compounds were cytotoxic and induce apoptosis in HL-60 cells, now we have to found out the early events which were responsible for the induction of apoptosis like reactive oxygen species (ROS) or nitric oxide (NO) generation. Intracellular peroxide (ROS) in the cells was measured by DCFH-DA by using flow cytometry. Cells were incubated with tested compounds at 1 μM for 24 h in HL-60 cells and analyzed by flow cytometry after double staining with DCFH-DA (FIG. 7). Cells were analyzed for fluorescence intensity in FL1 vs. cell count. There was hardly any DCF fluorescence (ROS positive cells) in the untreated HL-60 cells, and this status remained unchanged when cells were incubated for 24 hr with compounds 7 and 8. […] Compounds 4 and 6 also induce the generation of peroxide in HL-60 cells (31 and 16% increase, respectively)."}, "PC-3 cells": {"system": "PC-3 cells", "experiment": "Fluorescent microscopic (DAPI) analysis of cell death", "type": "cell-based, human", "conditions": "PC-3, 1 μM, 24 h", "description": "(§2) The mechanism of cell death was also studied in HL-60 and PC-3 cells by fluorescent microscopic studies. The PC-3 cells were treated with compd. 8 as in case of HL-60 cells. For fluorescent DAPI staining, air dried smears of cells on glass slides were fixed in absolute methanol at −20° C. for 20 min and stained with DAPI (Sigma) at 1 μg/ml at room temperature for 20 min in the dark and mounted with 90% glycerol in PBS and observed under fluorescent microscope (Olympus).\n(§3) Morphological changes of HL-60 and PC-3 cells in response to this compound 8 were observed. The untreated cells were having large sized nuclei."}, "HL-60": {"system": "HL-60", "experiment": "Fluorescent microscopic (DAPI) analysis of cell death", "type": "cell-based, human", "conditions": "HL-60, 1 μM, 24 h, data not shown", "description": "as §2, §3"}, "RPMI-8226": {"system": "RPMI-8226", "experiment": "NCI SRB GI50 screen", "type": "cell-based", "conditions": "Homo sapiens, Leukemia, 48 hrs exposure, read-out: Growth Inhibition GI50 RPMI-8226", "description": "2-Anilino nicotinyl linked 2-amino benzothiazole conjugates of formula 9-12 were tested against fifty nine human cancer cell lines derived from nine cancer types (leukemia, non-small cell lung cancer, colon cancer, CNS cancer, melanoma, ovarian cancer, renal cancer, prostate cancer and breast cancer) as per NCI protocol. For each compound, dose response curves for individual cell lines were measured at a minimum of five concentrations at 10 fold dilutions. A protocol of 48 hrs continuous drug exposure was used, and a sulforhodamine B (SRB) protein assay was used to estimate cell viability or growth."}}, "note": "“Also recorded” adds a separate entry of the source."}
{"smiles": "O=C(Nc1nc2ccc([N+](=O)[O-])cc2s1)c1cccnc1Nc1cc(F)c(F)c(F)c1", "note": "[Compound 8, N3-(6-nitro-1,3-benzothiazol-2-yl)-2-[(3,4,5-trifluorophenyl)amino]-3-pyridine carboxamide]", "values": [{"measurement": "DNA damaged (sub-G0 fraction)", "setting": "HL-60 cells [1]", "result": 90, "unit": "%"}, {"measurement": "loss of mitochondrial membrane potential", "setting": "HL-60 cells [2]", "result": 45, "unit": "%"}, {"measurement": "PARP cleavage (western blot)", "setting": "PARP", "result": "highest potential"}, {"measurement": "inhibition at 1 µM", "setting": "OVCAR-5; 1 μM", "result": 37, "unit": "%"}, {"measurement": "inhibition at 10 µM", "setting": "OVCAR-5; 10 μM", "result": 52, "unit": "%"}, {"measurement": "inhibition at 10 µM", "setting": "SK-NS-H", "result": 49, "unit": "%"}, {"measurement": "inhibition at 10 µM", "setting": "SiHa", "result": 70, "unit": "%"}, {"measurement": "inhibition at 10 µM", "setting": "HCT-15", "result": 62, "unit": "%"}, {"measurement": "inhibition at 1 µM", "setting": "PC-3", "result": 41, "unit": "%"}, {"measurement": "inhibition at 1 µM", "setting": "HEP-2; 1 μM", "result": 49, "unit": "%"}, {"measurement": "inhibition at 10 µM", "setting": "HEP-2; 10 μM", "result": 0, "unit": "%"}, {"measurement": "inhibition at 1 µM", "setting": "MCF-7", "result": 46, "unit": "%"}, {"measurement": "inhibition at 1 µM", "setting": "DU145; 1 μM", "result": 58, "unit": "%"}, {"measurement": "inhibition at 10 µM", "setting": "DU145; 10 μM", "result": 39, "unit": "%"}, {"measurement": "inhibition at 10 µM", "setting": "502713", "result": 80, "unit": "%"}, {"measurement": "inhibition at 1 µM", "setting": "IMR-32; 1 μM", "result": 48, "unit": "%"}, {"measurement": "inhibition at 10 µM", "setting": "IMR-32; 10 μM", "result": 72, "unit": "%"}, {"measurement": "inhibition at 1 µM", "setting": "A549; 1 μM", "result": 27, "unit": "%"}, {"measurement": "inhibition at 10 µM", "setting": "A549; 10 μM", "result": 27, "unit": "%"}, {"measurement": "inhibition at 1 µM", "setting": "Sw-620; 1 μM", "result": 29, "unit": "%"}, {"measurement": "inhibition at 10 µM", "setting": "Sw-620; 10 μM", "result": 70, "unit": "%"}, {"measurement": "inhibition at 1 µM", "setting": "IGR-OV-1", "result": 42, "unit": "%"}, {"measurement": "DCF fluorescence (ROS positive cells), in words", "setting": "HL-60 cells [3]", "result": "unchanged"}, {"measurement": "nuclear morphology (DAPI)", "setting": "PC-3 cells", "result": "fragmentatation of nuclei due to apoptosis; also recorded: condensation and fragmentation of nuclei"}, {"measurement": "nuclear morphology (DAPI)", "setting": "HL-60", "result": "fragmentatation of nuclei due to apoptosis"}]}
{"smiles": "COc1ccc2nc(NC(=O)c3cccnc3Nc3cc(OC)c(OC)c(OC)c3)sc2c1", "note": "[Compound 12, N-3-(6-methoxy-1,3-benzothiazol-2-yl)-2-(3,4,5-trimethoxyanilino) nicotinamide]", "values": [{"measurement": "GI50", "setting": "RPMI-8226", "result": 9.94, "unit": "µM"}]}
